# According to the Kinase Knowledgebase extract (Sharma et al. 2016):
# Target: MAPK14 (human) (UniProt Q16539)
# Experiment: Assessment of MAPK14 Kinase Activity
# Sequence of MAPK14 (human) (Q16539 whole entry, looked up): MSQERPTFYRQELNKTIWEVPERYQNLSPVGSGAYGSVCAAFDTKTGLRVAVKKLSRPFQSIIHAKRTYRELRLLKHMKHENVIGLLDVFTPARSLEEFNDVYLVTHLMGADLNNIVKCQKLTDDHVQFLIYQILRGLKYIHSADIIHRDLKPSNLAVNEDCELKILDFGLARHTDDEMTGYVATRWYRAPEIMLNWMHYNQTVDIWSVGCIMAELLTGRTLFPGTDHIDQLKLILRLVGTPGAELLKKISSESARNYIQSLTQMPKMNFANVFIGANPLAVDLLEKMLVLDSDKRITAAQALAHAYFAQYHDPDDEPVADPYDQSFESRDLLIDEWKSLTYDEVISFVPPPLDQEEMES
row,IC50,Structure (SMILES)
1,8.9 nM,Cc1cc(OCc2ccccc2CNC(=O)Nc2cc(C(C)(C)C)nn2-c2ccc(O)c(Cl)c2)c(Cl)c(=O)n1Cc1cccc(C(O)C(N)=O)c1 (stereo unspecified)
2,3.6 nM,Cc1cc(OCc2ccccc2CNC(=O)Nc2cc(C(C)(C)C)nn2-c2ccc(O)c(Cl)c2)c(Cl)c(=O)n1Cc1ccc(C(=O)CN)cc1
3,16.9 nM,COC(=O)c1ccc(Cn2c(C)cc(OCc3ccccc3CNC(=O)Nc3cc(C(C)(C)C)nn3-c3ccc(C)cc3)c(Br)c2=O)cc1
4,2.5 nM,Cc1ccc(C(=O)N[C@H](C)C(N)=O)cc1-n1c(C)cc(OCc2ccccc2CNC(=O)Nc2cc(C(C)(C)C)nn2-c2ccc(O)c(Cl)c2)c(Cl)c1=O
5,2.4 nM,Cc1cc(OCc2ccccc2CNC(=O)Nc2cc(C(C)(C)C)nn2-c2ccc(Cl)c(O)c2)c(Cl)c(=O)n1Cc1ccc(C(=O)CN)cc1
6,176 nM,Cc1cc(OCc2ccccc2CNC(=O)Nc2cc(C3CC3)nn2-c2ccccc2)c(Br)c(=O)n1Cc1ccccc1
7,11 nM,CCc1c(OCc2ccccc2CNC(=O)Nc2cc(C(C)(C)C)nn2-c2cccc(F)c2)ncn(Cc2ccccc2)c1=O
8,9.55 nM,COC(=O)c1ccc(C)c(-n2c(SC)nc(OCc3ccc(F)cc3CNC(=O)Nc3cc(C(C)(C)C)nn3-c3ccc(C)cc3)cc2=O)c1
9,1.4 nM,Cc1ccc(C(=O)OCCN(C)C)cc1-n1c(C)cc(OCc2ccc(F)cc2CNC(=O)Nc2cc(C(C)(C)C)nn2-c2cccc(OCCO)c2)c(Cl)c1=O
10,1.7 nM,Cc1ccc(C(=O)OCCO)cc1-n1c(C)cc(OCc2ccc(F)cc2CNC(=O)Nc2cc(C(C)(C)C)nn2-c2cccc(OCCO)c2)c(Cl)c1=O
11,20.5 nM,COc1ccccc1Cn1c(C)cc(OCc2ccccc2CNC(=O)Nc2cc(C(C)CSC)nn2-c2cccc(O)c2)c(Cl)c1=O (stereo unspecified)
